The values that follow come from ChEMBL document CHEMBL6109159, “Discovery of a Potent and Selective Protein Arginine Methyltransferase 5 (PRMT5) PROTAC Degrader” (J Med Chem, 2025).

The source made the active and inactive calls. The calls are words filed in the database; no cut-off is given here.

Assay [1] deals with T1, von Hippel-Lindau disease tumor suppressor/Protein arginine N-methyltransferase 5 (Homo sapiens, UniProt O14744+P40337). The assay is described as follows: PROTAC activity at PRMT5/VHL in human MDA-MB-453 cells assessed as degradation at 0.5 uM after 3 days by Western blot analysis. The class given is cell-based. As to conditions: time 3.0 day. For orientation: Immunoblotting shows a protein as a band on a membrane.
T1 sequence (O14744 whole entry, looked up): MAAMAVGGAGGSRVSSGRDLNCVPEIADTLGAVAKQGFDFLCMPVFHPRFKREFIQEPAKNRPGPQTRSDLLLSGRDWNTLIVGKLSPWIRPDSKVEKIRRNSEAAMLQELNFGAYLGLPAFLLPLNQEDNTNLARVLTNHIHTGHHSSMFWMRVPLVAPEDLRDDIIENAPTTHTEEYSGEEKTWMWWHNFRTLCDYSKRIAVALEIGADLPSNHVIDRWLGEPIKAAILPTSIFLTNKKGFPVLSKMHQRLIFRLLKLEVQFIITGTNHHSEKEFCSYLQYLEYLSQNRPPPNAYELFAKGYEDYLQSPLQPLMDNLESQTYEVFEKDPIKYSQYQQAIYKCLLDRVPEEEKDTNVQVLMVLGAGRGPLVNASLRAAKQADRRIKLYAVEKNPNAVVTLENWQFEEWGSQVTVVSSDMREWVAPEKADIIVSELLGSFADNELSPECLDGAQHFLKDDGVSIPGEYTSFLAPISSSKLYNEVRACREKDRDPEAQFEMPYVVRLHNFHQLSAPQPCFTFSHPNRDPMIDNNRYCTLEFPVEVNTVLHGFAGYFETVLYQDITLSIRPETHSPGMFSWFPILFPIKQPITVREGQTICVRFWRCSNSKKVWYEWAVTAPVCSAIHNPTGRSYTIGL
T1 sequence (P40337 whole entry, looked up): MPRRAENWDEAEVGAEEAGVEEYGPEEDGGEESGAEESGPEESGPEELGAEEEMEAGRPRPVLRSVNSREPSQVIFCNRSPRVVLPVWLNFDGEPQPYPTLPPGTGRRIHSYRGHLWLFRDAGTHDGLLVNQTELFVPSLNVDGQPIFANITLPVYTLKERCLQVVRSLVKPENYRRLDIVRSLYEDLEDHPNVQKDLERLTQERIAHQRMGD

The subject of the next assay is BT-549. Put plainly: Growth inhibition of human BT-549 cells assessed as cell viability measured after 5 days by CCK-8 assay. As to conditions: time 5.0 day. The class given is functional, cell-based.
Assay [2] deals with T2, von Hippel-Lindau disease tumor suppressor/Methylosome protein WDR77 (Homo sapiens, UniProt Q9BQA1+P40337). Put plainly: PROTAC activity at MEP50/VHL in human MDA-MB-468 cells assessed as downregulation of MEP50 at 2 uM of compound after 24 hrs by mass spectrometry (MS)-based global proteomic study. The format is cell-based.
T2 sequence (P40337 whole entry, looked up): as above
T2 sequence (Q9BQA1 whole entry, looked up): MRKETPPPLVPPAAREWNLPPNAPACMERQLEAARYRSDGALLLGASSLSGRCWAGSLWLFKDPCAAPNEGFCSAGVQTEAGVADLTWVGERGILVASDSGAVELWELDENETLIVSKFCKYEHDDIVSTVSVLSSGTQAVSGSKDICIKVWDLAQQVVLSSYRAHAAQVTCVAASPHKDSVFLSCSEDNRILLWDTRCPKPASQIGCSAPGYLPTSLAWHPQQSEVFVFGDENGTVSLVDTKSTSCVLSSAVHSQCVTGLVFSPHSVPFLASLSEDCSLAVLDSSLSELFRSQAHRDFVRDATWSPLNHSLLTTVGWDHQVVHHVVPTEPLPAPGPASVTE
For assay [3], the target named is T1, von Hippel-Lindau disease tumor suppressor/Protein arginine N-methyltransferase 5. Put plainly: PROTAC activity at PRMT5/VHL in human MCF-10A cells assessed as degradation at 0.5 to 5 uM after 3 days by Western blot analysis. As to conditions: dose 0.5-5 µM, time 3.0 day. The format is cell-based.
For assay [4] the target is unchanged. The assay is described as follows: PROTAC activity at PRMT5/VHL in human MDA-MB-231 cells assessed as degradation at 5 uM after 3 days by Western blot analysis. The format is cell-based. As to conditions: time 3.0 day.
The target in assay [5] is T2, von Hippel-Lindau disease tumor suppressor/Methylosome protein WDR77. Put plainly: PROTAC activity at MEP50/VHL in human MDA-MB-468 cells assessed as relative protein level at 5 uM measured after 24 hrs by Western blot analysis. The class given is cell-based.
The target is the same in assay [6]. The assay is described as follows: PROTAC activity at MEP50/VHL in human MDA-MB-468 cells assessed as maximal degradation measured after 72 hrs by Western blot analysis relative to control. The class given is cell-based.
The target is the same in assay [7]. The assay is described as follows: PROTAC activity at MEP50/VHL in human PNT2 cells assessed as degradation at 0.5 to 5 uM after 3 days by Western blot analysis. The format is cell-based. As to conditions: dose 0.5-5 µM, time 3.0 day.
Assay [8] deals with T1, von Hippel-Lindau disease tumor suppressor/Protein arginine N-methyltransferase 5. Put plainly: PROTAC activity at PRMT5/VHL in human MDA-MB-468 cells assessed as downregulation of PRMT5 at 2 uM of compound after 24 hrs by mass spectrometry (MS)-based global proteomic study. The format is cell-based.
Assay [9] concerns the target Protein arginine N-methyltransferase 5 (Homo sapiens, UniProt O14744). Put plainly: Inhibition of PRMT5 (unknown origin) using S-adenosylmethionine (SAM) using as substrate preincubated for 30 mins followed by substrate addition measured after 60 mins by microplate reader.
Assay [10] concerns the target T2, von Hippel-Lindau disease tumor suppressor/Methylosome protein WDR77. The assay is described as follows: PROTAC activity at MEP50/VHL in VHL KO human MDA-MB-468 cells assessed as degradation at 5 uM of compound after 24 hrs by Western blot analysis. The class given is cell-based.
The next assay relates to PC-3. The assay is described as follows: Inhibition of colony formation in human PC-3 cells incubated for 10 days by crystal violet staining based analysis. The conditions noted are these: time 10.0 day. The format is functional, cell-based.
The target of assay [11] is T1, von Hippel-Lindau disease tumor suppressor/Protein arginine N-methyltransferase 5. The assay is described as follows: PROTAC activity at PRMT5/VHL in human MDA-MB-468 cells assessed as degradation pretreated with MG132 proteasome inhibitor followed by treated at 5 uM of compound after 24 hrs by Western blot analysis. The format is cell-based.
The target is the same in assay [12]. Put plainly: PROTAC activity at […]/VHL in human MDA-MB-468 cells assessed as relative protein level at 0.5 uM measured after 24 hrs by Western blot analysis. The format is cell-based.
The target is the same in assay [13]. Put plainly: PROTAC activity at PRMT5/VHL in human MCF7 cells assessed as degradation at 0.5 uM after 3 days by Western blot analysis. The class given is cell-based. The conditions noted are these: time 3.0 day.
The target is the same in assay [14]. The assay is described as follows: PROTAC activity at PRMT5/VHL in human MDA-MB-231 cells assessed as degradation at 0.5 uM after 3 days by Western blot analysis. The format is cell-based. As to conditions: time 3.0 day.

Chain of Protein arginine N-methyltransferase 5 (O14744 whole entry): as the sequence (O14744 whole entry, looked up) above

By Emax is commonly meant the maximal effect, on the per cent scale that the assay sets. The IC50 is the midpoint of a concentration-inhibition curve. Read a low IC50 as greater potency in that assay. For the compound `Cc1ncsc1-c1ccc([C@H](CC(=O)NCCOCCOCCOCCOCCOCCC(=O)N2CCC(Nc3cc(C(=O)NC[C@H](O)CN4CCc5ccccc5C4)ncn3)CC2)NC(=O)[C@@H]2C[C@@H](O)CN2C(=O)[C@@H](NC(=O)C2(F)CC2)C(C)(C)C)cc1`, the result (in [1]; in [2]; in assay [4]; in assay [5]; in assay [8]; in the assay on PC-3) was Active. Also, the result in assay [12], in assay [13] and in [14] was Active. Moreover, in the assay with BT-549, the “growth inhibition (GI)” value was “Active”. For the same compound, the results for the Activity in assay [3], in [7] and in assay [10] were 100%, 100% and “Not active; Complete Rescue Not Observed - Due To Incomplete Vhl Ko”, respectively. In addition, the Emax in [6] is 91.4%. The same compound came in with an IC50 in assay [9] of 2.1 µM. Also, in assay [11], the outcome was inactive.
